Values quoted from earlier work in US20240293435A1, “Methods and Compositions for Treating Human Disorders Using D-Cycloserine and a Psychedelic Agent” (William & Mary, priority 2023, published 2024).

What was measured:
[1] = tested on: Mycobacterium tuberculosis strains; conditions: typical Mycobacterium tuberculosis strains

N[C@@H]1CON=C1O [DCS, 3-Isoxazolidinone, 4-amino-, (4R)-(9CI)]
minimum inhibitory concentrations (MIC) in vitro [1]: 6 to 25 µg/mL | serum concentrations generally maintained (dose of 500 mg/day, chronic treatment): 25000 to 30000 ng/mL | half-life (oral capsules): 10 h | time to peak serum concentrations after dosing (oral capsules): 3 to 8 h | benefit on Alzheimer's Disease (Alzheimer's Disease; daily administration of 100 mg (Tsai et al. 1999)): positive benefit | benefit for treatment of Alzheimer's Disease (Alzheimer's Disease; up to 50 mg daily dosing, multi-center 410-patient trial (Fakouhi et al. 1995)): did not have a significant benefit
